Test results published in publication PMC9979163, “Discovery and functional characterization of N-(thiazol-2-yl)-benzamide analogs as the first class of selective antagonists of the Zinc-Activated Channel (ZAC)” (Biochemical pharmacology, 2021).

These molecules were tested against T1, ZAC (Homo sapiens, UniProt Q401N2) (assay: TEVC recordings, Zn2+-evoked currents at ZAC expressed in Xenopus oocytes). Conditions: 1 mM Zn2+ as agonist, tested at three concentrations (0.3-3-30 μM or 1-10-100 μM).
T1 sequence (Q401N2 26-412): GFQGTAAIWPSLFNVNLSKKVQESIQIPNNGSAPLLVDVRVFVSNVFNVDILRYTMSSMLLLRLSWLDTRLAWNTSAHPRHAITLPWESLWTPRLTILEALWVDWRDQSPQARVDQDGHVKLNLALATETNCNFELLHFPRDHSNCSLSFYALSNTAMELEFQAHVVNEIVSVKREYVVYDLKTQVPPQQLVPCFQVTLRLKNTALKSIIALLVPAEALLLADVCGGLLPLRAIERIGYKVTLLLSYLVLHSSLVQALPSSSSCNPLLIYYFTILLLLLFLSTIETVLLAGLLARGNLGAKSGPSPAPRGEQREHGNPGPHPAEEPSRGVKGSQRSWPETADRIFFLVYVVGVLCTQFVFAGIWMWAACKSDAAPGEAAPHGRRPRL
Assay type: cell-based
Protocol: The cDNAs for the various WT and chimeric CLR subunits were linearized and subsequently transcribed and capped mMessage mMachine T7 RNA transcription kit (Ambion, Waltham, MA). Different amounts of cRNA mixtures were injected for ZAC (9.2–36.8 nL in a concentration of 0.05 μg/μL), […] nAChR (9.2–36.8 nL in a concentration of 0.1 μg/μL of each subunit in a ratio of 1:1), hα1 GlyR (9.2–36.8 nL in a concentration of 0.05 μg/μL), hα1β2γ2s GABAAR (9.2–36.8 nL in a concentration of 0.05 μg/μL of each subunit in a ratio of 1:1:3), m5-HT3AR (9.2–36.8 nL in a concentration of 0.05 μg/μL), m5-HT3A/ZAC (9.2–36.8 nL in a concentration of 0.207 μg/μL), and ZAC/hai-Gly (9.2–36.8 nL in a concentration of 0.206 μg/μL). Oocytes were incubated in a sterile modified Barth’s solution [88 mM NaCl, 1 mM KCl, 15 mM HEPES (pH 7.5), 2.4 mM NaHCO3, 0.41 mM CaCl2, 0.82 mM MgSO4, 0.3 mM Ca(NO3)2, 100 U/ml penicillin and 100 μg/ml strep-tomycin] at 18 °C for 2 days after injection.
On the day of experiment, all compound dilutions were prepared in a saline solution [115 mM NaCl, 2.5 mM KCl, 10 mM MOPS (pH 7.5), 1.8 mM CaCl2, 0.1 mM MgCl2] and pH adjusted to 7.5 (if needed). Oocytes were placed in a recording chamber continuously perfused with this saline solution, and the compounds were applied in the perfusate. Both voltage and current electrodes were agar-plugged with 3 M KCl with a resistance of 0.2–2.0 MΩ. Oocytes were voltage-clamped at −50 mV (unless otherwise stated) by a Gene Clamp 500B amplifier (Axon Instruments, Union City, CA), while current signals were digitized by a Digidata 1320. Currents were recorded using pCLAMP 10 (Molecular Devices, Sunnyvale, CA). The recordings were performed at room temperature.
In all recordings, the compounds or compound combinations were applied in the bath until the peak current decayed to a steady state (up to 30 sec at the most). […] The functional properties of the modulators at the CLRs were determined by pre-application of the modulator to the perfusate 30 sec and followed by co-application of the modulator and the agonist to the perfusate. In all recordings, washes of 1–5 min were executed between the applications to prevent receptor desensitization, the duration of these washes depending on the kinetics of the respective receptors and the “stickyness” of the respective compounds. […] For the selectivity and mode-of-action studies, the agonist concentrations used for different CLRs or chimeric CLRs were in the EC20–EC40 range (verified on the day of experiment), as this enabled us to investigate both for putative positive and negative receptor modulation exerted by TTFB (hα3β4 nAChR, 3 μM (S)-nicotine; m5-HT3AR, 2 μM 5-HT; hα1 GlyR, 100 μM glycine; hα1β2γ2S GABAAR, 30 μM GABA; m5-HT3A/ZAC, 0.3 μM 5-HT; ZAC/hɑ1-Gly, 2 μM Zn^2+).
Data analysis of the results from the TEVC recordings were performed using Clampfit software version 10.5 (Molecular Devices, Crawley, UK) and GraphPad Prism version 7.0c (GraphPad Software, Inc. La Jolla, CA). Data for the test compounds were normalized to either the maximal agonist-evoked current or to an EC20–EC50-mediated response elicited by the agonist on each oocyte (specified in each case). Unless otherwise stated, data for agonist-induced responses in the presence of the antagonists were extracted from the plateau (or steady-state) of the agonist-evoked current. Concentration-response and concentration-inhibition curves were fitted in GraphPad Prism by nonlinear regression using the equation for sigmoidal dose-response with variable slope. I-V relationships were analyzed by fitting the curves with a third order polynomial model. Each data point represents the mean ± S.E.M. value of recordings performed on at least five oocytes from at least two different batches.

Row | Antagonist activity at ZAC in SAR study (in words) | Compound
1 | lower potency as ZAC antagonist than 2b | CC(C)(C)c1csc(NC(=O)c2cc(F)c(F)cc2Cl)n1 [5h]
2 | inactivity | Cc1cnc(NC(=O)c2cc(F)c(F)cc2Cl)s1 [6b]
3 | inactive | CCOC(=O)c1sc(NC(=O)c2ccccc2Cl)nc1C [4i]
4 | considerably weaker ZAC antagonist | CC(C)(C)c1csc(NC(=O)c2c(F)c(F)c(F)c(F)c2F)n1 [5b]
5 | inactivity | O=C(Nc1nccs1)c1cc(F)c(F)cc1Cl [6a]
6 | inactive | C=CCN(CC=C)S(=O)(=O)c1ccc(C(=O)Nc2nc(C)c(C(=O)OCC)s2)cc1 [4m]
7 | essentially inactive | CCOC(=O)c1sc(NC(=O)c2cc(OC)c(OC)c(OC)c2)nc1C [4l]
8 | essentially inactive | COC(=O)c1sc(NC(=O)c2ccc(C)cc2)nc1C [4b]
9 | inactive | CCOc1ccc(C(=O)Nc2nc(C)c(C(=O)OC)s2)cc1Br [4g]
10 | essentially inactive | COC(=O)c1sc(NC(=O)c2ccccc2C)nc1C [4a]
11 | inactive | CCOC(=O)c1sc(NC(=O)c2cc(Cl)cc(Cl)c2)nc1C [4j]
12 | essentially inactive | COc1cc(C(=O)Nc2nc(C(C)(C)C)cs2)cc(OC)c1OC [5i]
13 | inactivity | CC(=O)c1sc(NC(=O)c2cc(F)c(F)cc2Cl)nc1C [6c]
14 | roughly equipotent with 2b | CN(C)c1cccc(C(=O)Nc2nc(C(C)(C)C)cs2)c1 [5f]
15 | inactive | CCOC(=O)c1sc(NC(=O)c2cc(Cl)ccc2OC)nc1C [4k]
16 | inactive | CCOC(=O)c1sc(NC(=O)c2cccnc2)nc1C [4n]
17 | inactive | CCOC(=O)c1sc(NC(=O)c2ccco2)nc1C [4o]
18 | decreased antagonist potency | CN(C)c1cccc(C(=O)Nc2nc(C3CC3)cs2)c1 [6l]
19 | further reduced ZAC activity | CC(C)c1csc(NC(=O)c2cccc(Nc3ncccn3)c2)n1 [6m]
20 | inactive | COC(=O)c1sc(NC(=O)c2cc([N+](=O)[O-])ccc2Cl)nc1C [4f]
21 | inactive | COC(=O)c1sc(NC(=O)c2ccncc2)nc1C [4h]
22 | inactivity | CCOC(=O)Cc1csc(NC(=O)c2cc(Cl)cc(Cl)c2)n1 [6g]

The remaining lines, values behind:

Row | Compound | Antagonist activity at ZAC in SAR study (in words)
23 | Cc1csc(NC(=O)c2cccc(Br)c2)n1 [3c] | weak ZAC activity
24 | CCOC(=O)Cc1csc(NC(=O)c2cc(Br)ccc2Cl)n1 [2c] | slightly more potent and efficacious ZAC inhibition than 1
25 | O=C(Nc1nc2ccccc2s1)c1cc(Br)ccc1Cl [2e] | substantial loss of activity
26 | CCc1nc(NC(=O)c2cccc(Br)c2)sc1C(=O)OC [3a] | inactive
27 | CC(C)(C)c1csc(NC(=O)c2cccc(Br)c2)n1 [3d] | fairly potent
28 | Cc1cnc(NC(=O)c2cc(Br)ccc2Cl)s1 [2a] | inactivity
29 | CC(C)(C)c1csc(NC(=O)c2cc(Br)ccc2Cl)n1 [2b] | slightly more potent and efficacious ZAC inhibition than 1
30 | COC(=O)c1sc(NC(=O)c2cc([N+](=O)[O-])cc([N+](=O)[O-])c2)nc1C [4e] | completely devoid of antagonist activity
31 | COC(=O)c1sc(NC(=O)c2cc(C)cc(C)c2)nc1C [4d] | did not alter its antagonist activity substantially
32 | Cc1nc(NC(=O)c2cccc(Br)c2)sc1C [3g] | considerably weaker antagonist
33 | COC(=O)c1sc(NC(=O)c2cccc(I)c2)nc1C [4c] | did not alter its antagonist activity substantially
34 | O=C(Nc1nnc(C2CCCCC2)s1)c1cc(Br)ccc1Cl [2f] | substantial loss of activity
35 | COc1ccc(Cl)cc1C(=O)Nc1nc(C(C)(C)C)cs1 [5g] | somewhat potent but apparent partial inhibition
36 | CC(C)(C)c1nnc(NC(=O)c2cccc(Br)c2)s1 [3k] | essentially eliminated ZAC activity
37 | CCOC(=O)c1sc(NC(=O)c2cccc(Br)c2)nc1C [3b] | inactive
38 | Cc1ccc(-c2csc(NC(=O)c3cc(Br)ccc3Cl)n2)cc1 [2d] | reduced substantially
39 | O=C(Nc1nc(-c2ccc(Br)s2)cs1)c1cccc(Br)c1 [3e] | eliminated ZAC activity completely
40 | O=C(Nc1ncc([N+](=O)[O-])s1)c1cccc(Br)c1 [3f] | weaker antagonists

Same assay, conditions: Zn2+ (1 mM) as agonist, TEVC

Row | Fitted inhibition range, Inhibition (%) | Hill coefficient nH ± S.E.M. | Compound
41 | 88 ± 3 | −1.2 ± 0.12 | CC(C)(C)c1csc(NC(=O)c2cc(Br)ccc2Cl)n1 [2b]
42 | 78 ± 3 | −0.89 ± 0.06 | COC(=O)c1sc(NC(=O)c2cccc(I)c2)nc1C [4c]

Same assay, conditions: Zn2+ (1 mM) as agonist, TEVC, steady-state current; read-out: IC50

Row | IC50 [µM] | Compound
43 | ~20 | O=C(Nc1ncc([N+](=O)[O-])s1)c1cccc(Br)c1 [3f]

Same assay, conditions: Zn2+ (1 mM) as agonist, TEVC, steady-state current; read-out: pIC50 ± S.E.M. (converted)

Row | IC50 [µM] | Compound
44 | 1.32 | CC(C)(C)c1csc(NC(=O)c2cc(Br)ccc2Cl)n1 [2b]
45 | 1.02 | COC(=O)c1sc(NC(=O)c2cccc(I)c2)nc1C [4c]

Same assay, conditions: Zn2+ (1 mM), full concentration-inhibition curves

Row | Extent of inhibition of Zn2+-induced responses (in words) | Compound
46 | completely | CC(C)(C)c1csc(NC(=O)c2cc(Br)ccc2Cl)n1 [2b]
47 | completely | COC(=O)c1sc(NC(=O)c2cccc(I)c2)nc1C [4c]
